Measurements taken from ChEMBL document CHEMBL1128757, “Linear peptide ETA antagonists: rational design and practical derivatization of N-terminal amino- and imino-carbonylated tripeptide derivatives” (Bioorg Med Chem Lett, 1995).
pIC50: −log10 of the molar value.

Key:
Endothelin-1 receptor [1] = molecular target: T1, Endothelin-1 receptor (Sus scrofa, UniProt Q29010); assay: Binding affinity determined against ETA receptor in porcine aortic smooth muscle membrane
T1 sequence (Q29010 whole entry): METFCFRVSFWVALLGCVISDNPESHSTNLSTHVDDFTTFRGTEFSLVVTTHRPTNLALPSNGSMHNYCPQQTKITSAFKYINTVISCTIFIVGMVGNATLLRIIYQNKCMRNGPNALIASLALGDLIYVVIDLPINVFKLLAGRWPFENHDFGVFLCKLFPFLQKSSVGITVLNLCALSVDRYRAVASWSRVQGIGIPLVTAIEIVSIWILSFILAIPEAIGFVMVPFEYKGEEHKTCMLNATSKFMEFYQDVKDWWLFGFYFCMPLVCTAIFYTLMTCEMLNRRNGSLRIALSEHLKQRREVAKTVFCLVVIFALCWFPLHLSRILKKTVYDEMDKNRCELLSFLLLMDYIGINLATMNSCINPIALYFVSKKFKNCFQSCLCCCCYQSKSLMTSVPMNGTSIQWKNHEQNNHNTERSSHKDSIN

Endothelin-1 receptor [2] = molecular target: T1, Endothelin-1 receptor; assay: Binding affinity against ETA receptor in porcine aortic smooth muscle membrane was determined
Endothelin-1 receptor [3] = molecular target: T1, Endothelin-1 receptor; assay: Binding affinity against ETA receptor in porcine aortic smooth muscle membrane
Endothelin-1 receptor [4] = molecular target: T1, Endothelin-1 receptor; assay: Antagonistic activity towards ET- l-induced contraction in porcine coronary arteries; assay type: functional; conditions: read-out: pA2 (converted)

Work on `CC(C)C[C@H](NC(=O)N1C(C)(C)CCCC1(C)C)C(=O)NC(Cc1c[nH]c2ccccc12)C(=O)NCCC(=O)O` (single isomer, unassigned) yielded an IC50 max (Endothelin-1 receptor [1]) of 0.19 µM.
For `CC(C)CC(=O)N[C@@H](CC(C)C)C(=O)NC(Cc1c[nH]c2ccccc12)C(=O)NCCC(=O)O` (single isomer, unassigned), the pIC50 (Endothelin-1 receptor [2]) was 5.41.
`CC(C)C[C@H](NC(=O)N(CCO)C(C)(C)C)C(=O)NC(Cc1c[nH]c2ccccc12)C(=O)NCCC(=O)O` (single isomer, unassigned) showed an IC50 max (Endothelin-1 receptor [1]) of 0.053 µM.
`CC(C)C[C@H](NC(=O)NC(C)(C)C)C(=O)NC(Cc1c[nH]c2ccccc12)C(=O)NCCC(=O)O` (single isomer, unassigned) showed an IC50 max (Endothelin-1 receptor [1]) of 0.15 µM and a pIC50 (Endothelin-1 receptor [3]) of 6.64.
With `CC(C)C[C@H](NC(=O)N1CCCCC1)C(=O)NC(Cc1c[nH]c2ccccc12)C(=O)NCCC(=O)O` (single isomer, unassigned) the IC50 max (Endothelin-1 receptor [1]) was 0.081 µM.
Work on `CC(C)C[C@H](NC(=O)Cc1cccs1)C(=O)NC(Cc1c[nH]c2ccccc12)C(=O)NCCC(=O)O` (single isomer, unassigned) yielded an IC50 max (Endothelin-1 receptor [1]) of 0.42 µM and a pIC50 (Endothelin-1 receptor [3]) of 6.27.
In the case of `Cc1cccc(NC(=O)N[C@@H](CC(C)C)C(=O)NC(Cc2c[nH]c3ccccc23)C(=O)NCCC(=O)O)c1` (single isomer, unassigned), the pIC50 (Endothelin-1 receptor [3]) was 5.68.
With `CC(C)C[C@H](NC(=O)N1CCc2ccccc2C1)C(=O)NC(Cc1c[nH]c2ccccc12)C(=O)NCCC(=O)O` (single isomer, unassigned) the IC50 max (Endothelin-1 receptor [1]) was 0.53 µM.
With `CC(C)C[C@H](NC(=O)N1CCCCCCCCC1)C(=O)NC(Cc1c[nH]c2ccccc12)C(=O)NCCC(=O)O` (single isomer, unassigned) the IC50 max (Endothelin-1 receptor [1]) was 0.055 µM.
For `CC(C)C[C@H](NC(=O)NC12CC3CC(CC(C3)C1)C2)C(=O)NC(Cc1c[nH]c2ccccc12)C(=O)NCCC(=O)O` (single isomer, unassigned), the IC50 max (Endothelin-1 receptor [1]) was 0.33 µM.
With `CC(C)C[C@H](NC(=O)N1CCCC1)C(=O)NC(Cc1c[nH]c2ccccc12)C(=O)NCCC(=O)O` (single isomer, unassigned) the IC50 max (Endothelin-1 receptor [1]) was 0.31 µM.
With `CC(C)C[C@H](NC(=O)N1CCC(C)CC1)C(=O)NC(Cc1c[nH]c2ccccc12)C(=O)NCCC(=O)O` (single isomer, unassigned) the IC50 max (Endothelin-1 receptor [1]) was 0.58 µM.
`CC(C)C[C@H](NC(=O)Nc1cccc(Cl)c1)C(=O)NC(Cc1c[nH]c2ccccc12)C(=O)NCCC(=O)O` (single isomer, unassigned) showed a pIC50 (Endothelin-1 receptor [3]) of 5.68.
Work on `CC(C)C[C@H](NC(=O)CC(C)(C)C)C(=O)NC(Cc1c[nH]c2ccccc12)C(=O)NCCC(=O)O` (single isomer, unassigned) yielded a pIC50 (Endothelin-1 receptor [3]) of 5.17.
`CC(C)C[C@H](NC(=O)NCc1ccccc1)C(=O)NC(Cc1c[nH]c2ccccc12)C(=O)NCCC(=O)O` (single isomer, unassigned) showed a pIC50 (Endothelin-1 receptor [3]) of 5.49.
With `CC(C)C[C@H](NC(=O)NCC(C)(C)C)C(=O)NC(Cc1c[nH]c2ccccc12)C(=O)NCCC(=O)O` (single isomer, unassigned) the IC50 max (Endothelin-1 receptor [1]) was 0.56 µM.
`CC(C)CC(=O)N[C@@H](CC(C)C)C(=O)N[C@H](Cc1c[nH]c2ccccc12)C(=O)N[C@H](CC(=O)O)C(=O)O` showed a pIC50 (Endothelin-1 receptor [2]) of 4.60.
`CC(C)C[C@H](NC(=O)N(C(C)C)C(C)C)C(=O)NC(Cc1c[nH]c2ccccc12)C(=O)NCCC(=O)O` (single isomer, unassigned) was tested, and the IC50 max (Endothelin-1 receptor [1]) was 0.057 µM.
`CC(C)C[C@H](NC(=O)OC(C)(C)C)C(=O)NC(Cc1c[nH]c2ccccc12)C(=O)NCCC(=O)O` (single isomer, unassigned) gave an IC50 max (Endothelin-1 receptor [1]) of 0.27 µM and a pIC50 (Endothelin-1 receptor [3]) of 6.38.
In the case of `CC(C)C[C@H](NC(=O)N1CCCCCC1)C(=O)NC(Cc1c[nH]c2ccccc12)C(=O)NCCC(=O)O` (single isomer, unassigned), the IC50 max (Endothelin-1 receptor [1]) was 0.061 µM and the Kb (Endothelin-1 receptor [4]) was 60.3 nM.
`CC(C)C[C@H](NC(=O)N1C(C)CCCC1C)C(=O)NC(Cc1c[nH]c2ccccc12)C(=O)NCCC(=O)O` (single isomer, unassigned) showed an IC50 max (Endothelin-1 receptor [1]) of 0.051 µM.
`CC(C)C[C@H](NC(=O)[C@H](N)C(C)C)C(=O)N[C@H](Cc1c[nH]c2ccccc12)C(=O)N[C@H](CC(=O)O)C(=O)O` showed a pIC50 (Endothelin-1 receptor [2]) of 4.49.
With `CC(C)C[C@H](NC(=O)CC1CCCC1)C(=O)NC(Cc1c[nH]c2ccccc12)C(=O)NCCC(=O)O` (single isomer, unassigned) the IC50 max (Endothelin-1 receptor [1]) was 0.62 µM and the pIC50 (Endothelin-1 receptor [3]) was 6.01.
